# According to publication PMC11374673, “Discovery of isoquinoline sulfonamides as allosteric gyrase inhibitors with activity against fluoroquinolone-resistant bacteria” (Nature Chemistry, 2024):
# pIC50: −log10 of the molar value. Where “and” joins values, the source holds several entries; their conditions need not be identical. Equal entries are not always repeated. Entries after “also recorded” stand apart in the source; their conditions may differ.
# How the values were obtained:
# HepG2 = test: Cytotoxicity assay (MTT); format: cell-based, human; conditions: for pIC50: MTT, 24 h
# Procedure: (§1) HepG2 (ATCC HB-8065) and HEK293T (ATCC CRL-3216) cell lines were cultured at 37 °C and 7% CO2 in Dulbecco’s modified Eagle medium (Sigma-Aldrich, D6546) with GlutaMax, penicillin (100 µg ml^−1), streptomycin (100 µg ml^−1) and 10% fetal calf serum. Cells were passaged twice a week by first detaching using 0.05% trypsin in phosphate-buffered saline (PBS) and then diluting to appropriate confluence. Compound cytotoxicity was evaluated using the standard (3-(4,5-dimethylthiazol-2-yl)-2,5-diphenyltetrazolium bromide (MTT) assay protocol (MTT assay protocol for cell viability and proliferation, Merck) with slight changes. HepG2 and HEK293T cells were seeded at a density of 1.5 × 10^4 cells per well in a clear 96-well tissue culture treated plate in a final volume of 100 µl in Dulbecco’s modified Eagle medium, supplemented with fetal bovine serum (1%), GlutaMax and penicillin/streptomycin. Cells were incubated for 24 h at 37 °C, 7% CO2 to allow cells to attach to the plates. […] Incubation was done for 24 h at 37 °C, 7% CO2. After the incubation, MTT was added to each well at a final concentration of 0.40 mg ml^−1. The plates were then incubated for 2 h at 37 °C, 7% CO2. Medium was carefully removed via suction, and purple formazan crystals were resuspended in 100 µl DMSO. Absorbance was read at 570 nm using a Clariostar plate reader with MARS (V4.20). The data were then analysed with GraphPad Prism software. IC50 values were calculated using non-linear fitted curve with variable slope settings, with values adjusted for background (plotted absorbance (ABS)sample = (ABSsample – ABSbackground) / (ABSvehicle – ABSbackground)). Technical triplicates for each condition were used, along with biological duplicates.
# HEK293T = test: Cytotoxicity assay (MTT); format: cell-based, human; conditions: for MTT data (raw readout) / MTT data (raw reading): HEK293T; for pIC50: Homo sapiens, HEK-293T, 24 h, MTT
# Procedure: as §1
# K. pneumoniae ATCC 29665 = test: MIC by broth microdilution; format: cell-based, Klebsiella pneumoniae; conditions: Klebsiella pneumoniae, ATCC29665, broth microdilution; read-out: MIC K. pneumoniae ATCC 29665
# Outline: (§2)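 Exponential-phase cultures (OD600 0.5, 37 °C aerobic), diluted 100-fold in CAMHB, were added to twofold compound dilution series. Keio strains grown with 50 µg ml^−1 kanamycin. Plates incubated overnight at 37 °C, shaking at 600 r.p.m.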
# E. coli W3110 = test: MIC by broth microdilution; format: cell-based, Escherichia coli; conditions: for MIC: Escherichia coli, W3110, WT, broth microdilution, read-out: MIC E. coli W3110
# Outline: as §2
# [1] = HepG2, 0.023 uM, experiment n = 1, technical triplicates
# [2] = HepG2, 0.023 uM, experiment n = 2, technical triplicates
# [3] = HepG2, 0.068 uM, experiment n = 1, technical triplicates
# [4] = HepG2, 0.068 uM, experiment n = 2, technical triplicates
# [5] = HepG2, 0.21 uM, experiment n = 1, technical triplicates
# [6] = HepG2, 0.21 uM, experiment n = 2, technical triplicates
# [7] = HepG2, 0.62 uM, experiment n = 1, technical triplicates
# [8] = HepG2, 0.62 uM, experiment n = 2, technical triplicates
# [9] = HepG2, 1.85 uM, experiment n = 1, technical triplicates
# [10] = HepG2, 1.85 uM, experiment n = 2, technical triplicates
# [11] = 0.023 uM, experiment n = 1, technical triplicates
# [12] = 0.023 uM, experiment n = 2, technical triplicates
# [13] = 0.068 uM, experiment n = 1, technical triplicates
# [14] = 0.068 uM, experiment n = 2, technical triplicates
# [15] = 0.21 uM, experiment n = 1, technical triplicates
# [16] = 0.21 uM, experiment n = 2, technical triplicates
# [17] = 0.62 uM, experiment n = 1, technical triplicates
# [18] = 0.62 uM, experiment n = 2, technical triplicates
# [19] = 1.85 uM, experiment n = 1, technical triplicates
# [20] = 1.85 uM, experiment n = 2, technical triplicates
smiles,measurement,setting,value
O=S(=O)(NC[C@H]1CC[C@H](c2ccc(-c3ccc(F)nc3)cc2)N1)c1cccc2cnccc12 [Compound 97],MTT data (raw readout),HepG2; [1],0.311 and 0.313 and 0.321
same,MTT data (raw readout),HepG2; [2],0.270 and 0.220 and 0.207
same,MTT data (raw readout),HepG2; [3],0.289 and 0.307 and 0.326
same,MTT data (raw readout),HepG2; [4],0.263 and 0.259 and 0.236
same,MTT data (raw readout),HepG2; [5],0.296 and 0.298 and 0.289
same,MTT data (raw readout),HepG2; [6],0.257 and 0.247 and 0.226
same,MTT data (raw readout),HepG2; [7],0.322 and 0.321 and 0.315
same,MTT data (raw readout),HepG2; [8],0.242 and 0.234
same,MTT data (raw readout),HepG2; [9],0.327 and 0.348 and 0.347
same,MTT data (raw readout),HepG2; [10],0.240 and 0.213
same,pIC50,"HepG2; Homo sapiens, HepG2, 24 h",< 4.00
same,pIC50,HepG2,< 4.30
same,MTT data (raw readout),HEK293T; [11],1.365 and 1.275 and 1.431
same,MTT data (raw readout),HEK293T; [12],0.941 and 0.907 and 1.040
same,MTT data (raw readout),HEK293T; [13],1.367 and 1.278 and 1.395
same,MTT data (raw readout),HEK293T; [14],0.968 and 0.952 and 1.040
same,MTT data (raw readout),HEK293T; [15],1.452 and 1.196 and 1.181
same,MTT data (raw readout),HEK293T; [16],0.930 and 0.987 and 0.817
same,MTT data (raw readout),HEK293T; [17],1.160 and 1.204 and 1.255
same,MTT data (raw readout),HEK293T; [18],0.874 and 0.902 and 0.863
same,MTT data (raw readout),HEK293T; [19],1.307 and 1.173 and 1.284
same,MTT data (raw readout),HEK293T; [20],0.763 and 0.774 and 0.841
same,pIC50,HEK293T,4.41
same,MIC,K. pneumoniae ATCC 29665,25 µM
same,MIC,E. coli W3110,12.5 µM
same,antimicrobial activity,E. coli W3110; relative to parent compound,fourfold less active; also recorded: reduced activity
N#Cc1ccc(-c2ccc(CNCCNS(=O)(=O)c3cccc4cnccc34)cc2)cc1 [Compound 63],MTT data (raw readout),HepG2; [1],0.543 and 0.530 and 0.509
same,MTT data (raw readout),HepG2; [2],0.611 and 0.614 and 0.593
same,MTT data (raw readout),HepG2; [3],0.510 and 0.515 and 0.533
same,MTT data (raw readout),HepG2; [4],0.570 and 0.587 and 0.633
same,MTT data (raw readout),HepG2; [5],0.498 and 0.524 and 0.534
same,MTT data (raw readout),HepG2; [6],0.605 and 0.658 and 0.657
same,MTT data (raw readout),HepG2; [7],0.497 and 0.566 and 0.560
same,MTT data (raw readout),HepG2; [8],0.617 and 0.653 and 0.661
same,MTT data (raw readout),HepG2; [9],0.544 and 0.508 and 0.538
same,MTT data (raw readout),HepG2; [10],0.697 and 0.634 and 0.669
same,MTT data (raw readout),"HepG2; HepG2, 5.6 uM, experiment n = 1, technical triplicates",0.597 and 0.586 and 0.658
same,MTT data (raw readout),"HepG2; HepG2, 5.6 uM, experiment n = 2, technical triplicates",0.663 and 0.721 and 0.746
same,MTT data (raw readout),"HepG2; HepG2, 16.7 uM, experiment n = 1, technical triplicates",0.547 and 0.517 and 0.544
same,MTT data (raw readout),"HepG2; HepG2, 16.7 uM, experiment n = 2, technical triplicates",0.629 and 0.671 and 0.616
same,pIC50,"HepG2; Homo sapiens, HepG2, 24 h",4.42
same,MTT data (raw readout),HEK293T; [11],0.901 and 1.153 and 1.291
same,MTT data (raw readout),HEK293T; [12],0.788 and 0.714 and 0.753
same,MTT data (raw readout),HEK293T; [13],1.230 and 1.606
same,MTT data (raw readout),HEK293T; [14],0.880 and 0.788
same,MTT data (raw readout),HEK293T; [15],1.126 and 1.263 and 1.301
same,MTT data (raw readout),HEK293T; [16],0.786 and 0.824 and 0.781
same,MTT data (raw readout),HEK293T; [17],1.516 and 1.537 and 1.418
same,MTT data (raw readout),HEK293T; [18],0.850 and 0.846 and 0.825
same,MTT data (raw readout),HEK293T; [19],1.143 and 1.250 and 1.118
same,MTT data (raw readout),HEK293T; [20],0.775 and 0.761 and 0.773
same,MTT data (raw readout),"HEK293T; 5.6 uM, experiment n = 1, technical triplicates",1.050 and 1.130 and 1.181
same,MTT data (raw readout),"HEK293T; 5.6 uM, experiment n = 2, technical triplicates",0.666 and 0.667 and 0.723
same,MTT data (raw readout),"HEK293T; 16.7 uM, experiment n = 1, technical triplicates",0.577 and 0.585 and 0.499
same,MTT data (raw readout),"HEK293T; 16.7 uM, experiment n = 2, technical triplicates",0.403 and 0.407 and 0.398
same,MTT data (raw readout),"HEK293T; 50 uM, experiment n = 1, technical triplicates",0.057 and 0.055 and 0.049
same,pIC50,HEK293T,4.83
same,MIC,K. pneumoniae ATCC 29665,12.5 µM
same,MIC,E. coli W3110,6.25 µM
O=S(=O)(NCCNCc1ccc(-c2ccc(Cl)cc2)cc1)c1cccc2cnccc12 [Compound 61],MTT data (raw reading),"HepG2; HepG2, 0.023 uM, n = 1",0.473 and 0.481 and 0.514
same,MTT data (raw reading),"HepG2; HepG2, 0.023 uM, n = 2",0.517 and 0.561 and 0.567
same,MTT data (raw reading),"HepG2; HepG2, 0.068 uM, n = 1",0.534 and 0.501 and 0.482
same,MTT data (raw reading),"HepG2; HepG2, 0.068 uM, n = 2",0.479 and 0.534 and 0.570
same,MTT data (raw reading),"HepG2; HepG2, 0.21 uM, n = 1",0.462 and 0.484 and 0.480
same,MTT data (raw reading),"HepG2; HepG2, 0.21 uM, n = 2",0.576 and 0.558 and 0.573
same,MTT data (raw reading),"HepG2; HepG2, 0.62 uM, n = 1",0.454 and 0.449
same,MTT data (raw reading),"HepG2; HepG2, 0.62 uM, n = 2",0.464 and 0.502 and 0.467
same,MTT data (raw reading),"HepG2; HepG2, 1.85 uM, n = 1",0.401 and 0.414 and 0.404
same,MTT data (raw reading),"HepG2; HepG2, 1.85 uM, n = 2",0.454 and 0.456 and 0.471
same,MTT data (raw reading),"HepG2; HepG2, 5.6 uM, n = 1",0.017 and 0.021 and 0.022
same,MTT data (raw reading),"HepG2; HepG2, 5.6 uM, n = 2",0.042 and 0.022 and 0.021
same,MTT data (raw reading),"HepG2; HepG2, 16.7 uM, n = 1",0.009 and 0.013
same,pIC50,"HepG2; Homo sapiens, HepG2, 24 h",5.55
same,MTT data (raw reading),"HEK293T; 0.023 uM, n = 1",0.895 and 1.117 and 0.888
same,MTT data (raw reading),"HEK293T; 0.023 uM, n = 2",0.606 and 0.823 and 0.767
same,MTT data (raw reading),"HEK293T; 0.068 uM, n = 1",1.228 and 1.100 and 1.289
same,MTT data (raw reading),"HEK293T; 0.068 uM, n = 2",0.594 and 0.790 and 0.797
same,MTT data (raw reading),"HEK293T; 0.21 uM, n = 1",1.193 and 1.192 and 1.600
same,MTT data (raw reading),"HEK293T; 0.21 uM, n = 2",0.478 and 0.738 and 0.728
same,MTT data (raw reading),"HEK293T; 0.62 uM, n = 1",0.992 and 0.937 and 0.903
same,MTT data (raw reading),"HEK293T; 0.62 uM, n = 2",0.540 and 0.686 and 0.703
same,MTT data (raw reading),"HEK293T; 1.85 uM, n = 1",0.640 and 0.552 and 0.507
same,MTT data (raw reading),"HEK293T; 1.85 uM, n = 2",0.345 and 0.480 and 0.465
same,MTT data (raw reading),"HEK293T; 5.6 uM, n = 1",0.114 and 0.126 and 0.094
same,MTT data (raw reading),"HEK293T; 5.6 uM, n = 2",0.048 and 0.047 and 0.040
same,MTT data (raw reading),"HEK293T; 16.7 uM, n = 1",0.021 and 0.012 and 0.016
same,pIC50,HEK293T,6.00
same,MIC,K. pneumoniae ATCC 29665,> 50 µM
same,MIC,E. coli W3110,6.25 µM
